Experimental data taken from article PMC12344758, “Qsarna: An Online Tool for Smart Chemical Space Navigation in Drug Design” (Journal of Chemical Information and Modeling, 2025).

How the values were obtained:
MAO-A = biological target: T1, MAO-A (Homo sapiens, UniProt P21397); test: Monoamine Oxidase-A Inhibitor Screening Kit (Merck, MAK295), fluorometric assay; type: biochemical; settings: for inhibition at 1 µM: concentration 1 uM; for inhibition at 10 µM: concentration 10 uM; for inhibition at 100 µM: concentration 100 uM; for IC50: secondary screen, 10 concentrations from 100 µM, duplicate
T1 construct: purchased Merck MAK295
T1 sequence (P21397 1-527): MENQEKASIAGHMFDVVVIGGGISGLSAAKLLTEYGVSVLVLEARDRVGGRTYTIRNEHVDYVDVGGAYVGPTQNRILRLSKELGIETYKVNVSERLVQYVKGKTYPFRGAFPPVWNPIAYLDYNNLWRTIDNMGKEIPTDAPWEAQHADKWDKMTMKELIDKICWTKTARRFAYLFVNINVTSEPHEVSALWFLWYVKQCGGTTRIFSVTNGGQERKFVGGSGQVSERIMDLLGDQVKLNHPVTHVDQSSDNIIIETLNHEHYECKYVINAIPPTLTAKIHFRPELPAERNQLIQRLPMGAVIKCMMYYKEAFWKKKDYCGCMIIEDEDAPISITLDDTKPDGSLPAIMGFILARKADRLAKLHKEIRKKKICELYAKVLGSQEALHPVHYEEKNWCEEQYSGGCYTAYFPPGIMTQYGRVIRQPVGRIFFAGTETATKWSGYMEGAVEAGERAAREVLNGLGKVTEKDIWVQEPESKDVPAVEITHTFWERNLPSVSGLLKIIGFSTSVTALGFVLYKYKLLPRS
Protocol: (§1) The experimental details for determining IC50 are presented in Supporting Information B.
(§2) To evaluate the IC50 of inhibitors, two fluorometric assays were used: the Monoamine Oxidase-A Inhibitor Screening Kit and the Monoamine Oxidase-B Inhibitor Screening Kit (Merck), according to the manufacturer’s protocol. The Echo dose-response software was used to prepare the plates. The compounds were tested at 10 concentrations, starting from 100 µM with a dilution factor of 3.16. All compounds were tested in duplicate in a final concentration of 1% of DMSO. Using a Mantis Liquid Dispenser (Formulatrix), 12.5 µL of protein was added to each tested compound (final concentration of 56 nM) and incubated for 60 minutes at 25°C (MAO-A) or 60 minutes at 37°C (MAO-B). Subsequently, the enzymatic reaction was initiated by adding 10 µL of substrate per well, followed by incubation for 60 minutes at 25°C (MAO-A) or 60 minutes at 37°C (MAO-B). The fluorescence intensity was measured using a plate reader (BioTek Synergy H1) with the following settings: excitation at 535 nm and emission at 587 nm. The data were normalized against low control (assay buffer […]
(§3) (1 picture or pasted object on this page, not shown here) […]
(§4) containing substrate) and high control (protein and substrate). The results were presented as a percentage of inhibition. […]

MAO-B = biological target: T2, MAO-B (Homo sapiens, UniProt P27338); test: Monoamine Oxidase-B Inhibitor Screening Kit (Merck, MAK296), fluorometric assay; type: biochemical; settings: for inhibition at 1 µM: concentration 1 uM; for inhibition at 10 µM: concentration 10 uM; for inhibition at 100 µM: concentration 100 uM; for IC50: secondary screen, 10 concentrations from 100 µM, duplicate
T2 construct: purchased Merck MAK296
T2 sequence (P27338 1-520): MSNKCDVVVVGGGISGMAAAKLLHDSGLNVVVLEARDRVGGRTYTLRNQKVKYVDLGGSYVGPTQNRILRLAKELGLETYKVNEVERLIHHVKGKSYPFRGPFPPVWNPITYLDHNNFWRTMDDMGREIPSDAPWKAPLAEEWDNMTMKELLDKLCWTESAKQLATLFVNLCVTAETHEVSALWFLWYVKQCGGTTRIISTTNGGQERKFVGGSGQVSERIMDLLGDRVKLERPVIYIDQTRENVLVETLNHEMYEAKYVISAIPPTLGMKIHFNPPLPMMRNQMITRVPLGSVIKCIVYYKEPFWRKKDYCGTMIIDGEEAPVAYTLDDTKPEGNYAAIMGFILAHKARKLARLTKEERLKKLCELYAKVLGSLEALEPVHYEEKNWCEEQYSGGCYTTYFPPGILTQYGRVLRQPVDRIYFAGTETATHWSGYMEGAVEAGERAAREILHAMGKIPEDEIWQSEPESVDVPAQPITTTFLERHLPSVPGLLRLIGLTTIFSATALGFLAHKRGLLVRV
Protocol: as §1, §2, §3, §4

SMILES: Cc1c(-c2ccccc2)c(=O)oc2cc(OS(=O)(=O)c3ccc(Br)cc3)ccc12 [MolPort-000-479-802]
- inhibition at 1 µM (MAO-A): 1.21%
- inhibition at 10 µM (MAO-A): 5.32%
- inhibition at 100 µM (MAO-A): 25.6%
- inhibition at 1 µM (MAO-B): 0%
- inhibition at 10 µM (MAO-B): 0%
- inhibition at 100 µM (MAO-B): 27.3%

SMILES: Cc1nc(Nc2ncc3c(n2)CC(C)CC3=O)nc2ccccc12 (stereo not shown) [MolPort-000-510-622]
- inhibition at 1 µM (MAO-A): 0%
- inhibition at 10 µM (MAO-A): 0%
- inhibition at 100 µM (MAO-A): 0%
- inhibition at 1 µM (MAO-B): 0%
- inhibition at 10 µM (MAO-B): 21%
- inhibition at 100 µM (MAO-B): 77.5%

SMILES: CCc1ccc(Nc2ncc3c(n2)CC(C)CC3=O)cc1 (stereo not shown) [MolPort-000-511-281]
- inhibition at 1 µM (MAO-A): 0%
- inhibition at 10 µM (MAO-A): 0%
- inhibition at 100 µM (MAO-A): 0%
- inhibition at 1 µM (MAO-B): 40%
- inhibition at 10 µM (MAO-B): 83.7%
- inhibition at 100 µM (MAO-B): 96.4%
- IC50 (MAO-B): 66.1 nM

SMILES: O=c1oc2cc(OCc3cccc(Cl)c3)ccc2c2c1CCC2 [MolPort-000-651-742]
- inhibition at 1 µM (MAO-A): 4.35%
- inhibition at 10 µM (MAO-A): 0%
- inhibition at 100 µM (MAO-A): 0%
- inhibition at 1 µM (MAO-B): 91.3%
- inhibition at 10 µM (MAO-B): 98.4%
- inhibition at 100 µM (MAO-B): 98%
- IC50 (MAO-B): 9.76 nM

SMILES: Cc1csc(N/N=C/c2cc(Cl)ccc2Cl)n1 [MolPort-000-660-156]
- inhibition at 1 µM (MAO-A): 10.8%
- inhibition at 10 µM (MAO-A): 24.3%
- inhibition at 100 µM (MAO-A): 46.7%
- inhibition at 1 µM (MAO-B): 3.45%
- inhibition at 10 µM (MAO-B): 0.34%
- inhibition at 100 µM (MAO-B): 39.5%

SMILES: O=C(Nc1ccc(Cl)cc1)C1=Cc2ccccc2OC1 [MolPort-000-686-585]
- inhibition at 1 µM (MAO-A): 0%
- inhibition at 10 µM (MAO-A): 0%
- inhibition at 100 µM (MAO-A): 0%
- inhibition at 1 µM (MAO-B): 0%
- inhibition at 10 µM (MAO-B): 51.7%
- inhibition at 100 µM (MAO-B): 91.2%
- IC50 (MAO-B): 10300 nM

SMILES: COc1ccc(C2=NN(C(C)=O)C(c3ccccc3)C2)c(O)c1 (stereo not shown) [MolPort-000-773-355]
- inhibition at 1 µM (MAO-A): 0%
- inhibition at 10 µM (MAO-A): 0%
- inhibition at 100 µM (MAO-A): 0%
- inhibition at 1 µM (MAO-B): 0%
- inhibition at 10 µM (MAO-B): 0%
- inhibition at 100 µM (MAO-B): 0%

SMILES: O=C(Cn1c(=O)oc2ccccc21)Nc1nnc(SCc2ccccc2)s1 [MolPort-001-610-534]
- inhibition at 1 µM (MAO-A): 0%
- inhibition at 10 µM (MAO-A): 0%
- inhibition at 100 µM (MAO-A): 15.7%
- inhibition at 1 µM (MAO-B): 0%
- inhibition at 10 µM (MAO-B): 0%
- inhibition at 100 µM (MAO-B): 0%

SMILES: CC(=O)Nc1ccc2c(c1)-c1ccccc1C2=O [MolPort-001-824-101]
- inhibition at 1 µM (MAO-A): 80.5%
- inhibition at 10 µM (MAO-A): 93.7%
- inhibition at 100 µM (MAO-A): 97.8%
- IC50 (MAO-A): 600 nM
- inhibition at 1 µM (MAO-B): 0%
- inhibition at 10 µM (MAO-B): 0%
- inhibition at 100 µM (MAO-B): 27.7%

SMILES: COc1ccc(C2SCC(=O)N2NC(=O)COc2ccc3c(C)cc(=O)oc3c2)cc1 (stereo not shown) [MolPort-002-546-020]
- inhibition at 1 µM (MAO-A): 0%
- inhibition at 10 µM (MAO-A): 0%
- inhibition at 100 µM (MAO-A): 0%
- inhibition at 1 µM (MAO-B): 0%
- inhibition at 10 µM (MAO-B): 0%
- inhibition at 100 µM (MAO-B): 46.3%

SMILES: Cc1cc(=O)oc2cc(OCC(=O)N/N=C/c3ccccc3)ccc12 [MolPort-002-548-000]
- inhibition at 1 µM (MAO-A): 0%
- inhibition at 10 µM (MAO-A): 0%
- inhibition at 100 µM (MAO-A): 0%
- inhibition at 1 µM (MAO-B): 0%
- inhibition at 10 µM (MAO-B): 0%
- inhibition at 100 µM (MAO-B): 0%

SMILES: CC(=O)NCC1CN(c2ccc(N3CCOCC3)c(F)c2)C(=O)O1 (stereo not shown) [MolPort-002-744-025]
- inhibition at 1 µM (MAO-A): 4.19%
- inhibition at 10 µM (MAO-A): 0%
- inhibition at 100 µM (MAO-A): 43.5%
- inhibition at 1 µM (MAO-B): 59%
- inhibition at 10 µM (MAO-B): 81%
- inhibition at 100 µM (MAO-B): 97.3%
- IC50 (MAO-B): 460 nM

SMILES: Cc1cc(=O)oc2c(C)c(OCc3nnc(S)n3-c3ccc(Br)cc3)ccc12 [MolPort-002-847-536]
- inhibition at 1 µM (MAO-A): 0%
- inhibition at 10 µM (MAO-A): 17.7%
- inhibition at 100 µM (MAO-A): 84.1%
- IC50 (MAO-A): 31900 nM
- inhibition at 1 µM (MAO-B): 11.9%
- inhibition at 10 µM (MAO-B): 30.3%
- inhibition at 100 µM (MAO-B): 105%
- IC50 (MAO-B): 2320 nM

SMILES: Clc1ccc(/C=N/c2ccc3[nH]ncc3c2)c(Cl)c1 [MolPort-002-945-866]
- inhibition at 1 µM (MAO-A): 7.2%
- inhibition at 10 µM (MAO-A): 26.1%
- inhibition at 100 µM (MAO-A): 7.8%
- inhibition at 1 µM (MAO-B): 0%
- inhibition at 10 µM (MAO-B): 32.5%
- inhibition at 100 µM (MAO-B): 84.4%
- IC50 (MAO-B): 32400 nM

SMILES: O=c1c(-c2ccccc2)coc2cc(O)cc(O)c12 [MolPort-003-665-835]
- inhibition at 1 µM (MAO-A): 0%
- inhibition at 10 µM (MAO-A): 0%
- inhibition at 100 µM (MAO-A): 0%
- inhibition at 1 µM (MAO-B): 0%
- inhibition at 10 µM (MAO-B): 39.8%
- inhibition at 100 µM (MAO-B): 87.3%
- IC50 (MAO-B): 2830 nM

SMILES: Fc1ccc(-c2ccc3c(c2)[nH]c2ccncc23)cn1 [MolPort-044-831-708]
- inhibition at 10 µM (MAO-A): 16.5%
- inhibition at 100 µM (MAO-A): 84.2%
- IC50 (MAO-A): 23600 nM
- inhibition at 1 µM (MAO-B): 5.64%
- inhibition at 10 µM (MAO-B): 37.9%
- inhibition at 100 µM (MAO-B): 81.3%
- IC50 (MAO-B): 11900 nM

SMILES: Cc1ccc(/C=N/Nc2nc3ccccc3nc2Cc2ccccc2)cc1 [Molport-002-863-179]
- inhibition at 1 µM (MAO-A): 0%
- inhibition at 10 µM (MAO-A): 0%
- inhibition at 100 µM (MAO-A): 0%
- inhibition at 1 µM (MAO-B): 0%
- inhibition at 10 µM (MAO-B): 0%
- inhibition at 100 µM (MAO-B): 0%

SMILES: Cc1nnc2c(Cc3ccccc3)nc3ccccc3n12 [Molport-002-872-748]
- inhibition at 1 µM (MAO-A): 0%
- inhibition at 10 µM (MAO-A): 0%
- inhibition at 100 µM (MAO-A): 0%
- inhibition at 1 µM (MAO-B): 0%
- inhibition at 10 µM (MAO-B): 0%
- inhibition at 100 µM (MAO-B): 0%
